{"source": "Sander's compilation of Henry's law constants (doi:10.1021/j100876a049)", "data": [{"experiment": "Henry solubility constant Hcp at 298.15 K (mol/(m3 Pa))", "conditions": "reference: McAuliffe (1966)", "values": [{"smiles": "C=CCC", "note": "[1-butene]", "Henry solubility constant Hcp": "4e-05"}, {"smiles": "CC(C)C", "note": "[2-methylpropane]", "Henry solubility constant Hcp": "8.5e-06"}, {"smiles": "CC(C)(C)C", "note": "[dimethylpropane]", "Henry solubility constant Hcp": "4.7e-06"}, {"smiles": "C#CC", "note": "[propyne]", "Henry solubility constant Hcp": 0.00092}, {"smiles": "C=CC(C)C", "note": "[3-methyl-1-butene]", "Henry solubility constant Hcp": "1.9e-05"}, {"smiles": "C=CC", "note": "[propene]", "Henry solubility constant Hcp": "4.8e-05"}, {"smiles": "C#CCC", "note": "[1-butyne]", "Henry solubility constant Hcp": 0.00054}, {"smiles": "C=C(C)C", "note": "[2-methylpropene]", "Henry solubility constant Hcp": "4.8e-05"}, {"smiles": "CCCC", "note": "[butane]", "Henry solubility constant Hcp": "1.1e-05"}, {"smiles": "C=C", "note": "[ethene]", "Henry solubility constant Hcp": "4.7e-05"}]}]}
